target: human adenosine A2b receptor (Homo sapiens (Human), UniProt P29275); assay: Cellular in vitro reporter gene test for A2b receptor activity (CHO-K1, CRE-luciferase, NECA stimulation); format: cell-based; details: recombinant CHO-K1 cell line, CRE-luciferase reporter, antagonism of EC50 concentration of NECA; in some cases means of several determinations, rounded to two significant figures; read-out: A2b receptor IC50
Experimental: B-1. Cellular In Vitro Tests for Determining A2b Receptor Activity and Adenosine Receptor Selectivity
In the case of the A2a and A2b cell lines, this is a minimal promoter having a plurality of cAMP-responsive elements (CRE). Stimulation of the Gs-coupled A2b or A2a receptors by NECA ultimately leads, via formation of cAMP, to CRE-dependent induction of luciferase expression, which is detected 3 hours after the start of the incubation with NECA using a detection solution in a suitable luminometer. For testing the antagonists, initially, in a pre-experiment, the concentration of NECA which, at the test day in question, results in half-maximum stimulation of luciferase expression (EC50 concentration) is determined. By joint incubation of this EC50 concentration of NECA with the substances to be tested, it is possible to determine their antagonistic activity.

human adenosine A2b receptor, sequence (P29275 whole entry): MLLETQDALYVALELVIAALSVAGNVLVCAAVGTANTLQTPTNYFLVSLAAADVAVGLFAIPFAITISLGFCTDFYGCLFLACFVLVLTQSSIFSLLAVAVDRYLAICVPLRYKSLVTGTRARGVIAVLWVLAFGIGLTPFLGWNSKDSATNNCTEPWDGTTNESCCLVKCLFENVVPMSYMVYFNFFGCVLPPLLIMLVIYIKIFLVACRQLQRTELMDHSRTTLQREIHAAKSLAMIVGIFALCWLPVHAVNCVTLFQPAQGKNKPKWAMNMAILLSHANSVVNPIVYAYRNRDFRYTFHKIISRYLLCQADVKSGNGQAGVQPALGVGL

| Compound | IC50 [µM] |
| --- | --- |
| CCn1c(=O)c2c(C(F)(F)F)c(CN3CCOC3=O)sc2n(CCC(F)(F)F)c1=O [Example 23, 3-Ethyl-6-[(2-oxo-1,3-oxazolidin-3-yl)methyl]-5-(trifluoromethyl)-1-(3,3,3-trifluoropropyl)thieno[2,3-d]pyrimidine-2,4(1H,3H)-dione] | 0.016 |
| CCn1c(=O)c2c(C)c(CN3CCNC3=S)sc2n(CCC(C)(C)C)c1=O [Example 37, 1-(3,3-Dimethylbutyl)-3-ethyl-5-methyl-6-[(2-thioxoimidazolidin-1-yl)methyl]thieno[2,3-d]pyrimidine-2,4(1H,3H)-dione] | 0.22 |
| CCCn1c(=O)c2c(C)c(CN3CCNC3=O)sc2n(CCOC)c1=O [Example 84, 1-(2-Methoxyethyl)-5-methyl-6-[(2-oxoimidazolidin-1-yl)methyl]-3-propylthieno[2,3-d]pyrimidine-2,4(1H,3H)-dione] | 0.0039 |
| Cc1c(CN2CCNC2=S)sc2c1c(=O)n(CC(C)(C)C)c(=O)n2CCC(F)(F)F [Example 149, 3-(2,2-Dimethylpropyl)-5-methyl-6-[(2-thioxoimidazolidin-1-yl)methyl]-1-(3,3,3-trifluoropropyl)thieno[2,3-d]pyrimidine-2,4(1H,3H)-dione] | 0.0051 |
| CCn1c(=O)c2c(C)c(CN3CCNC3=S)sc2n(CC2CCCO2)c1=O (single isomer, unassigned) [Example 140, 3-Ethyl-5-methyl-1-(tetrahydrofuran-2-ylmethyl)-6-[(2-thioxoimidazolidin-1-yl)methyl]thieno[2,3-d]pyrimidine-2,4(1H,3H)-dione] | 0.0048 |
| Cc1c(CN2CCNC2=S)sc2c1c(=O)n(CC(F)(F)F)c(=O)n2C [Example 159, 1,5-Dimethyl-6-[(2-thioxoimidazolidin-1-yl)methyl]-3-(2,22-trifluoroethyl)thieno[2,3-d]pyrimidine-2,4(1H,3H)-dione] | 0.014 |
| CCn1c(=O)c2c(C)c(CN3CCC3=O)sc2n(CCC(F)(F)F)c1=O [Example 2, 3-Ethyl-5-methyl-6-[(2-oxoazetidin-1-yl)methyl]-1-(3,3,3-trifluoropropyl)thieno[2,3-d]pyrimidine-2,4(1H,3H)-dione] | 0.011 |
| CCn1c(=O)c2c(C)c(CN3CCNC3=S)sc2n(CC2CCCO2)c1=O (racemic) [Example 35, 3-Ethyl-5-methyl-1-(tetrahydrofuran-2-ylmethyl)-6-[(2-thioxoimidazolidin-1-yl)methyl]thieno[2,3-d]pyrimidine-2,4(1H,3H)-dione (racemate)] | 0.0063 |
| C=CCn1c(=O)c2c(C)c(CN3CCNC3=O)sc2n(CCOC)c1=O [Example 85, 3-Allyl-1-(2-methoxyethyl)-5-methyl-6-[(2-oxoimidazolidin-1-yl)methyl]thieno[2,3-d]pyrimidine-2,4(1H,3H)-dione] | 0.018 |
| CCn1c(=O)c2c(C)c(CN3CCNC3=O)sc2n(C)c1=O [Example 76, 3-Ethyl-1,5-dimethyl-6-[(2-oxoimidazolidin-1-yl)methyl]thieno[2,3-d]pyrimidine-2,4(1H,3H)-dione] | 0.0093 |
| CCn1c(=O)c2c(C)c(CN3CCNC3=O)sc2n(CC2CCC2)c1=O [Example 80, 1-(Cyclobutylmethyl)-3-ethyl-5-methyl-6-[(2-oxoimidazolidin-1-yl)methyl]thieno[2,3-d]pyrimidine-2,4(1H,3H)-dione] | 0.0014 |
| CCn1c(=O)c2c(C)c(CN3CCCOC3=O)sc2n(CCC(F)(F)F)c1=O [Example 25, 3-Ethyl-5-methyl-6-[(2-oxo-1,3-oxazinan-3-yl)methyl]-1-(3,3,3-trifluoropropyl)thieno[2,3-d]pyrimidine-2,4(1H,3H)-dione] | 0.0057 |

Continued, values first:

| IC50 [µM] | Compound |
| --- | --- |
| 0.053 | CCOCCn1c(=O)c2c(C)c(CN3CCNC3=O)sc2n(CCCF)c1=O [Example 411, 3-(2-Ethoxyethyl)-1-(3-fluoropropyl)-5-methyl-6-[(2-oxoimidazolidin-1-yl)methyl]thieno[2,3-d]pyrimidine-2,4(1H,3H)-dione] |
| 0.032 | Cc1c(CN2CCNC2=O)sc2c1c(=O)n(CC(C)(C)C)c(=O)n2CC1CCCO1 (single isomer, unassigned) [Example 407, 3-(2,2-Dimethylpropyl)-5-methyl-6-[(2-oxoimidazolidin-1-yl)methyl]-1-(tetrahydrofuran-2-ylmethyl)thieno[2,3-d]pyrimidine-2,4(1H,3H)-dione] |
| 0.13 | COCCn1c(=O)c2c(C)c(CN3CCNC(=O)C3=O)sc2n(CC2CCCO2)c1=O (racemic) [Example 278, 6-[(2,3-Dioxopiperazin-1-yl)methyl]-3-(2-methoxyethyl)-5-methyl-1-(tetrahydrofuran-2-ylmethyl)thieno[2,3-d]pyrimidine-2,4(1H,3H)-dione] |
| 0.0052 | Cc1c(CN2CCNC2=S)sc2c1c(=O)n(CC(F)F)c(=O)n2CC1CCCO1 (single isomer, unassigned) [Example 163, 3-(2,2-Difluoroethyl)-5-methyl-1-(tetrahydrofuran-2-ylmethyl)-6-[(2-thioxoimidazolidin-1-yl)methyl]thieno[2,3-d]pyrimidine-2,4(1H,3H)-dione] |
| 0.0079 | CCn1c(=O)c2c(C)c(CN3CCNC3=NC(=O)OC)sc2n(CC2CCCO2)c1=O (single isomer, unassigned) [Example 376, Methyl [1-{[3-ethyl-5-methyl-2,4-dioxo-1-(tetrahydrofuran-2-ylmethyl)-1,2,3,4-tetrahydrothieno[2,3-d]pyrimidin-6-yl]methyl}imidazolidin-2-ylidene]carbamate] |
| 0.035 | CCOCCn1c(=O)c2c(C)c(CN3CCNC(=O)C3=O)sc2n(CCC(F)(F)F)c1=O [Example 403, 6-[(2,3-Dioxopiperazin-1-yl)methyl]-3-(2-ethoxyethyl)-5-methyl-1-(3,3,3-trifluoropropyl)thieno[2,3-d]pyrimidine-2,4(1H,3H)-dione] |
| 0.065 | COCCn1c(=O)c2c(C)c(CN3CCNC3=O)sc2n(CC2CCCO2)c1=O (single isomer, unassigned) [Example 325, 3-(2-Methoxyethyl)-5-methyl-6-[(2-oxoimidazolidin-1-yl)methyl]-1-(tetrahydrofuran-2-ylmethyl)thieno[2,3-d]pyrimidine-2,4(1H,3H)-dione] |
| 0.28 | Cc1c(Cn2nc[nH]c2=O)sc2c1c(=O)n(CC(C)(C)C)c(=O)n2CC1CCCO1 (single isomer, unassigned) [Example 430, 3-(2,2-Dimethylpropyl)-5-methyl-6-[(5-oxo-4,5-dihydro-1H-1,2,4-triazol-1-yl)methyl]-1-(tetrahydrofuran-2-ylmethyl)thieno[2,3-d]pyrimidine-2,4(1H,3H)-dione] |
| 0.27 | CCn1c(=O)c2c(C)c(CN3CCNC(=O)C3=O)sc2n(CC2CCCO2)c1=O (single isomer, unassigned) [Example 477, 6-[(2,3-Dioxopiperazin-1-yl)methyl]-3-ethyl-5-methyl-1-(tetrahydrofuran-2-ylmethyl)thieno[2,3-d]pyrimidine-2,4(1H,3H)-dione] |
| 0.011 | CCn1c(=O)c2c(C)c(CN3CCNC3=NC#N)sc2n(CC2CCO2)c1=O (racemic) [Example 256, [1-{[3-Ethyl-5-methyl-1-(oxetan-2-ylmethyl)-2,4-dioxo-1,2,3,4-tetrahydrothieno[2,3-d]pyrimidin-6-yl]methyl}imidazolidin-2-ylidene]cyanamide] |
| 0.068 | COCCn1c(=O)c2c(C)c(CN3CCNC(=O)C3=O)sc2n(CCCF)c1=O [Example 277, 6-[(2,3-Dioxopiperazin-1-yl)methyl]-1-(3-fluoropropyl)-3-(2-methoxyethyl)-5-methylthieno[2,3-d]pyrimidine-2,4(1H,3H)-dione] |
| 0.0021 | Cc1c(Cn2cc[nH]c2=O)sc2c1c(=O)n(C(C)C)c(=O)n2CCC(F)(F)F [Example 245, 3-Isopropyl-5-methyl-6-[(2-oxo-2,3-dihydro-1H-imidazol-1-yl)methyl]-1-(3,3,3-trifluoropropyl)thieno[2,3-d]pyrimidine-2,4(1H,3H)-dione] |
| 0.014 | Cc1c(CN2CCNC2=O)sc2c1c(=O)n(CC(F)F)c(=O)n2C [Example 223, 3-(2,2-Difluoroethyl)-1,5-dimethyl-6-[(2-oxoimidazolidin-1-yl)methyl]thieno[2,3-d]pyrimidine-2,4(1H,3H)-dione] |
| 0.0086 | COC(C)Cn1c(=O)c2c(C)c(Cn3nc[nH]c3=O)sc2n(CCC(F)(F)F)c1=O (single isomer, unassigned) [Example 441, 3-(2-Methoxypropyl)-5-methyl-6-[(5-oxo-4,5-dihydro-1H-1,2,4-triazol-1-yl)methyl]-1-(3,3,3-trifluoropropyl)thieno[2,3-d]pyrimidine-2,4(1H,3H)-dione] |
| 0.054 | Cc1c(CN2CCNC2=NC#N)sc2c1c(=O)n(CC(F)(F)F)c(=O)n2CC1CCO1 (single isomer, unassigned) [Example 449, [1-{[5-Methyl-1-(oxetan-2-ylmethyl)-2,4-dioxo-3-(2,2,2-trifluoroethyl)-1,2,3,4-tetrahydrothieno[2,3-d]pyrimidin-6-yl]methyl}imidazolidin-2-ylidene]cyanamide] |
| 0.0087 | Cc1c(CN2CCN(C)C2=O)sc2c1c(=O)n(CC(F)(F)F)c(=O)n2CCC(F)(F)F [Example 336, 5-Methyl-6-[(3-methyl-2-oxoimidazolidin-1-yl)methyl]-3-(2,2,2-trifluoroethyl)-1-(3,3,3-trifluoropropyl)thieno[2,3-d]pyrimidine-2,4(1H,3H)-dione] |
| 0.0065 | CCOCCn1c(=O)c2c(C)c(CN3CCNC3=S)sc2n(CCC(F)(F)F)c1=O [Example 301, 3-(2-Ethoxyethyl)-5-methyl-6-[(2-thioxoimidazolidin-1-yl)methyl]-1-(3,3,3-trifluoropropyl)thieno[2,3-d]pyrimidine-2,4(1H,3H)-dione] |
